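How tested: cells in 96-well plates exposed to compound for 48 hours at five concentrations. At the GI50, growth is halved.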 Active and inactive are the calls of the source. Rule as the data show it: active = GI50 up to about 1.1 µM and inactive = higher.
What was measured:
Assay in all cases: NCI-60 cell line screen, 48 h
[1] = test system: SF-268
[2] = test system: OVCAR-5
[3] = test system: SNB-75
[4] = test system: MOLT-4
[5] = test system: SK-MEL-5
[6] = test system: A549
[7] = test system: HOP-92
[8] = test system: SNB-19
[9] = test system: NCI-H226
[10] = test system: EKVX
[11] = test system: HCC 2998
[12] = test system: HT-29
[13] = test system: U-251
[14] = test system: SK-MEL-28
[15] = test system: UACC-257
[16] = test system: HCT-15

Structure (SMILES)	GI50 [1]	GI50 [2]	GI50 [3]	GI50 [4]	GI50 [5]	GI50 [6]	GI50 [7]	GI50 [8]	GI50 [9]	GI50 [10]	GI50 [11]	GI50 [12]	GI50 [13]	GI50 [14]	GI50 [15]	GI50 [16] [µM]
c1ccc(NC[Si]23OCCN(CCO2)CCO3)cc1	> 100 µM (inactive)	> 100 µM (inactive)	> 100 µM (inactive)	> 100 µM (inactive)	> 100 µM (inactive)	> 100 µM (inactive)	> 100 µM (inactive)	> 100 µM (inactive)	> 100 µM (inactive)	> 100 µM (inactive)	> 100 µM (inactive)	> 100 µM (inactive)	> 100 µM (inactive)	> 100 µM (inactive)	> 100 µM (inactive)	–
C/C(CC(=O)Nc1ccccc1[N+](=O)[O-])=N\NC(N)=O	> 100 µM (inactive)	> 100 µM (inactive)	> 100 µM (inactive)	> 100 µM (inactive)	> 100 µM (inactive)	> 100 µM (inactive)	> 100 µM (inactive)	–	> 100 µM (inactive)	> 100 µM (inactive)	> 100 µM (inactive)	> 100 µM (inactive)	> 100 µM (inactive)	> 100 µM (inactive)	> 100 µM (inactive)	–
CCOC(=O)c1cc(-c2ccc(-c3cc(C(=O)OCC)c(C#N)c(N)c3C#N)cc2)c(C#N)c(N)c1C#N	> 100 µM (inactive)	> 100 µM (inactive)	–	> 100 µM (inactive)	–	> 100 µM (inactive)	–	> 100 µM (inactive)	> 100 µM (inactive)	> 100 µM (inactive)	> 100 µM (inactive)	> 100 µM (inactive)	> 100 µM (inactive)	> 100 µM (inactive)	> 100 µM (inactive)	> 100
CC(N)CC(=O)O (stereo not drawn)	> 5000 µM (inactive)	> 5000 µM (inactive)	> 5000 µM (inactive)	> 5000 µM (inactive)	> 5000 µM (inactive)	2850 µM (inactive)	> 5000 µM (inactive)	–	> 5000 µM (inactive)	> 5000 µM (inactive)	> 5000 µM (inactive)	> 5000 µM (inactive)	> 5000 µM (inactive)	> 5000 µM (inactive)	> 5000 µM (inactive)	> 5000
CC(C)(Oc1ccc2c(=O)cc(-c3ccc(Cl)cc3)oc2c1)C(=O)Nc1c(Cl)cccc1Cl	> 100 µM (inactive)	> 100 µM (inactive)	–	> 100 µM (inactive)	96.6 µM (inactive)	> 100 µM (inactive)	> 100 µM (inactive)	> 100 µM (inactive)	–	> 100 µM (inactive)	–	> 100 µM (inactive)	> 100 µM (inactive)	> 100 µM (inactive)	> 100 µM (inactive)	24.2
O=C(O/N=C1/CCC/C1=C\c1ccccc1)c1ccccc1	38.7 µM (inactive)	> 100 µM (inactive)	47.5 µM (inactive)	27.4 µM (inactive)	44.6 µM (inactive)	> 100 µM (inactive)	> 100 µM (inactive)	–	> 100 µM (inactive)	29.8 µM (inactive)	–	40.7 µM (inactive)	> 100 µM (inactive)	> 100 µM (inactive)	> 100 µM (inactive)	59.6
CC(C)OC(=O)C1=C(O)c2ccccc2S(=O)(=O)N1	> 100 µM (inactive)	> 100 µM (inactive)	> 100 µM (inactive)	> 100 µM (inactive)	> 100 µM (inactive)	> 100 µM (inactive)	–	> 100 µM (inactive)	> 100 µM (inactive)	> 100 µM (inactive)	> 100 µM (inactive)	> 100 µM (inactive)	> 100 µM (inactive)	> 100 µM (inactive)	> 100 µM (inactive)	> 100
CCC12CCCN(Cc3ccccc3)C1c1c(n(C)c3ccccc13)CC2 (stereo not drawn)	199 µM (inactive)	–	–	101 µM (inactive)	69.3 µM (inactive)	> 25.3 µM (inactive)	110 µM (inactive)	> 253 µM (inactive)	> 253 µM (inactive)	> 253 µM (inactive)	151 µM (inactive)	167 µM (inactive)	247 µM (inactive)	> 253 µM (inactive)	107 µM (inactive)	185
CC(=O)N1C/C(=C\c2ccccc2)C(=O)/C(=C/c2ccccc2)C1	23.2 µM (inactive)	19.4 µM (inactive)	20 µM (inactive)	4.2 µM (inactive)	6.19 µM (inactive)	23.1 µM (inactive)	–	16.8 µM (inactive)	17.4 µM (inactive)	24 µM (inactive)	10.9 µM (inactive)	3.04 µM (inactive)	15.6 µM (inactive)	13.2 µM (inactive)	6.9 µM (inactive)	8.38
C#CCN(Cc1ccc2nc(-c3ccccc3)c(Cl)nc2c1)c1ccc(Cl)c(Cl)c1	> 100 µM (inactive)	> 100 µM (inactive)	> 100 µM (inactive)	> 100 µM (inactive)	> 100 µM (inactive)	> 100 µM (inactive)	> 100 µM (inactive)	> 100 µM (inactive)	–	> 100 µM (inactive)	33.5 µM (inactive)	> 100 µM (inactive)	> 100 µM (inactive)	> 100 µM (inactive)	> 100 µM (inactive)	> 100
CO[C@H](C(=O)O[C@H]1C(=O)N2CCC3CCC1C32C)c1ccccc1 (stereo partly drawn)	> 100 µM (inactive)	> 100 µM (inactive)	> 100 µM (inactive)	> 100 µM (inactive)	> 100 µM (inactive)	> 100 µM (inactive)	–	> 100 µM (inactive)	> 100 µM (inactive)	> 100 µM (inactive)	> 100 µM (inactive)	> 100 µM (inactive)	> 100 µM (inactive)	> 100 µM (inactive)	> 100 µM (inactive)	> 100
CCOC(=O)c1c2ccc(/C=C/c3ccccn3)ccc-2c(C(=O)OCC)c1N	0.091 µM (active)	> 100 µM (inactive)	> 100 µM (inactive)	> 100 µM (inactive)	> 100 µM (inactive)	> 100 µM (inactive)	> 100 µM (inactive)	> 100 µM (inactive)	> 100 µM (inactive)	> 100 µM (inactive)	> 100 µM (inactive)	> 100 µM (inactive)	–	0.361 µM (active)	> 100 µM (inactive)	> 100
COc1ccc(C(=O)O)c(Cc2cccc3ccccc23)c1	> 100 µM (inactive)	> 100 µM (inactive)	> 100 µM (inactive)	> 100 µM (inactive)	> 100 µM (inactive)	> 100 µM (inactive)	–	> 100 µM (inactive)	> 100 µM (inactive)	> 100 µM (inactive)	> 100 µM (inactive)	> 100 µM (inactive)	> 100 µM (inactive)	> 100 µM (inactive)	> 100 µM (inactive)	> 100
O=C(NC1C(=O)NNC1c1cccc([N+](=O)[O-])c1)c1ccccc1 (stereo not drawn)	> 100 µM (inactive)	> 100 µM (inactive)	> 100 µM (inactive)	> 100 µM (inactive)	> 100 µM (inactive)	> 100 µM (inactive)	> 100 µM (inactive)	> 100 µM (inactive)	> 100 µM (inactive)	> 100 µM (inactive)	> 100 µM (inactive)	> 100 µM (inactive)	> 100 µM (inactive)	> 100 µM (inactive)	> 100 µM (inactive)	–
